From publication PMC6225485, “Computational screening of chalcones acting against topoisomerase IIα and their cytotoxicity towards cancer cell lines” (Journal of Enzyme Inhibition and Medicinal Chemistry, 2018) come the findings set out here.

The target in the experiment is T1, human topoisomerase IIα (rhTopoIIα ATPase domain) (Homo sapiens, UniProt P11388).
T1 construct: gene TOP2A; ATPase domain (45 kDa, recombinant, pET28b-hTopoIIα-ATPase)
Put plainly: ADP-Glo ATPase assay with purified recombinant ATPase domain. Type of experiment: biochemical. Particulars: read-out: IC50 against rhTopoIIα ATPase domain. (In general: In ADP-Glo the light output rises with the ADP produced.)

T1 sequence (P11388 29-428 limits assumed): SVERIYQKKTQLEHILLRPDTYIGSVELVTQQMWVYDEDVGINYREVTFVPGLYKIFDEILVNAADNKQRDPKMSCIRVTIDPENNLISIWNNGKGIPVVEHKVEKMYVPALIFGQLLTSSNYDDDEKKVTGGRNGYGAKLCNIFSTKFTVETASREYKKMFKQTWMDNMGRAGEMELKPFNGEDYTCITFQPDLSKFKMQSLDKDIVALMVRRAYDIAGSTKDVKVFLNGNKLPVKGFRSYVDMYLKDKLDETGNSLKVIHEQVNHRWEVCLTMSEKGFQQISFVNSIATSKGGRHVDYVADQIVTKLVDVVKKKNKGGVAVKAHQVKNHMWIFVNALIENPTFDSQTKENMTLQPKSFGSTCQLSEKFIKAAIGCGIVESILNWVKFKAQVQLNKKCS

One may read the IC50 as the point on the concentration scale where inhibition reaches its midpoint. In the case of `COc1cc(O)c(C(=O)/C=C/c2cc(OC)c(OC)c(OC)c2)c(OC)c1` [3d, chalcone 3d], the IC50 is 7.5 ± 4.2 nM.

For the molecule `Cc1ccc2c(c1CCC(O)C(C)(C)O)C(=O)C(=O)C(C(C)C)=C2` (centres unmarked) [Salvicine], the IC50 came out at 326 ± 6.6 nM.
